# Measured values from patent US20230295200A1 (REGENTS OF THE UNIVERSITY OF MICHIGAN, priority 2022, published 2023).
# pKi: −log10 of the molar value.
# Biological target: T1, STAT6 protein (Homo sapiens, UniProt P42226)
# T1 sequence (P42226 1-847): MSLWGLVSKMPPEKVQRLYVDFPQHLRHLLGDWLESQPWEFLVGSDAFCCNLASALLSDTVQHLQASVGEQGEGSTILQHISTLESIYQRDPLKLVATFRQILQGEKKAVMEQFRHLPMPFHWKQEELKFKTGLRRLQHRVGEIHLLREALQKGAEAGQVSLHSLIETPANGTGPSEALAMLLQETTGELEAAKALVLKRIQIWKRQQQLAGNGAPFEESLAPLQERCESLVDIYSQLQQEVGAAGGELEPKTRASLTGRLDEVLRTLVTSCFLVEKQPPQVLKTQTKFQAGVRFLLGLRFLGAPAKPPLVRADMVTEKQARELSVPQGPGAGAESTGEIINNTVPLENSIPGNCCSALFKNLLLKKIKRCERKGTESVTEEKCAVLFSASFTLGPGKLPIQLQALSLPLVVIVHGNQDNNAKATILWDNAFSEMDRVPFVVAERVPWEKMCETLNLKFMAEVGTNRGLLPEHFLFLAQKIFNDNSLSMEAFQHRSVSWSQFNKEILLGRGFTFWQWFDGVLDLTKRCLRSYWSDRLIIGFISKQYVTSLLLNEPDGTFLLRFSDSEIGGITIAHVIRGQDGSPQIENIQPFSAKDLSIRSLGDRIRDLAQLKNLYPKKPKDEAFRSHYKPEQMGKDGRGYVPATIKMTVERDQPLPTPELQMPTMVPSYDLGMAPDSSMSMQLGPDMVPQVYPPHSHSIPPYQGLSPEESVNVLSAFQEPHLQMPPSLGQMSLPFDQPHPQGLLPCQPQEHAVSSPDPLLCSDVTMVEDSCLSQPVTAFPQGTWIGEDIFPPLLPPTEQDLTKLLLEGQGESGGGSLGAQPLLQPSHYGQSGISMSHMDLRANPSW
# Experiment: Fluorescence polarization (FP) binding assay, STAT6
# Details: FP competition, 5 nM fluorescein-labeled tracer, 200 nM protein, PBS pH7.4; read-out: Binding STAT6
# Experimental: Evaluation of the activity of the inhibitors may be accomplished by fluorescence polarization (FP) experiments. A representative general protocol is the following:
# Fluorescence polarization (FP) experiments are performed in black round-bottom plates using the CLARIOstar microplate reader. To each well, fluorescein-labeled tracer and STAT5 or STAT6 protein are added in assay buffer. […] The inhibition constants are determined as the concentration of the STAT5 or STAT6 at which 50% of the ligand is bound.
# Fluorescence polarization (FP) experiments were performed in 96-well, black round-bottom plates (Microfluor 2, Fisher Scientific) using the CLARIOstar microplate reader (BMG Labtech). To each well, 5 nM of fluoresceinlabeled tracer and 200 nM of STAT5 and/or STAT6 protein were added to a final volume of 100 μl in the assay buffer (PBS pH7.4+0.01% BGG+0.01% Tween-20, 2 mM DTT). The plate was mixed on a shaker for 15 m and incubated at room temperature for 1 h to reach equilibrium. […] All experimental data were analyzed using Prism 8.0 software (GraphPad Software), and the inhibition constants were determined by nonlinear curve fitting as the concentration of the STAT5 and/or STAT6 at which 50% of the ligand is bound.
row,Compound,pKi
1,"CCOC(=O)CO[C@H]1C[C@@H](C(=O)N(CCC(=O)O)c2ccc(Br)cc2)N(C(=O)[C@@H](NC(=O)c2cc3cc(C(F)(F)P(=O)(O)O)ccc3s2)C(C)(C)C)C1 [Compound 47, 3-((2S,4S)-N-(4-bromophenyl)-1-((S)-2-(5-(difluoro(phosphono)methyl)benzo [b]thiophene-2-carboxamido)-3,3-dimethylbutanoyl)-4-(2-ethoxy-2-oxoethoxy)pyrrolidine-2-carboxamido)propanoic acid]",6.00 to 7.00
2,"CCOC(=O)CO[C@@H]1C[C@@H](C(=O)N(CCC(=O)O)c2ccc(Br)cc2)N(C(=O)[C@@H](NC(=O)c2cc3cc(C(F)(F)P(=O)(O)O)ccc3s2)C(C)(C)C)C1 [Compound 48, 3-((2S,4R)-N-(4-bromophenyl)-1-((S)-2-(5-(difluoro(phosphono)methyl)benzo[b]thiophene-2-carboxamido)-3,3-dimethylbutanoyl)-4-(2-ethoxy-2-oxoethoxy)pyrrolidine-2-carboxamido)propanoic acid]",6.00 to 7.00
3,"CC(C)(C)[C@H](NC(=O)c1cc2cc(C(F)(F)P(=O)(O)O)ccc2s1)C(=O)N1C[C@@H](OCC(=O)O)C[C@H]1C(=O)N(CCC(=O)O)c1ccc(Br)cc1 [Compound 49, 3-((2S,4S)-N-(4-bromophenyl)-4-(carboxymethoxy)-1-((S)-2-(5-(difluoro(phosphono)methyl)benzo[b]thiophene-2-carboxamido)-3,3-dimethylbutanoyl)pyrrolidine-2-carboxamido)propanoic acid]",6.00 to 7.00
4,"CC(C)(C)[C@H](NC(=O)c1cc2cc(C(F)(F)P(=O)(O)O)ccc2s1)C(=O)N1C[C@H](OCC(=O)O)C[C@H]1C(=O)N(CCC(=O)O)c1ccc(Br)cc1 [Compound 50, 3-((2S,4R)-N-(4-bromophenyl)-4-(carboxymethoxy)-1-((S)-2-(5-(difluoro(phosphono)methyl)benzo[b]thiophene-2-carboxamido)-3,3-dimethylbutanoyl)pyrrolidine-2-carboxamido)propanoic acid]",6.00 to 7.00
5,"CNC(=O)CCN(C(=O)[C@@H]1C[C@H](OCC(=O)NC)CN1C(=O)[C@@H](NC(=O)c1cc2cc(C(F)(F)P(=O)(O)O)ccc2s1)C(C)(C)C)c1ccc(Br)cc1 [Compound 51, ((2-(((S)-1-((2S,4S)-2-((4-bromophenyl)(3-(methylamino)-3-oxopropyl)carbamoyl)-4-(2-(methylamino)-2-oxoethoxy)pyrrolidin-1-yl)-3,3-dimethyl-1-oxobutan-2-yl)carbamoyl)benzo[b]thiophen-5-yl)difluoromethyl)phosphonic acid]",6.00 to 7.00
6,"CNC(=O)CCN(C(=O)[C@@H]1C[C@@H](OCC(=O)NC)CN1C(=O)[C@@H](NC(=O)c1cc2cc(C(F)(F)P(=O)(O)O)ccc2s1)C(C)(C)C)c1ccc(Br)cc1 [Compound 52, ((2-(((S)-1-((2S,4R)-2-((4-bromophenyl)(3-(methylamino)-3-oxopropyl)carbamoyl)-4-(2-(methylamino)-2-oxoethoxy)pyrrolidin-1-yl)-3,3-dimethyl-1-oxobutan-2-yl)carbamoyl)benzo[b]thiophen-5-yl)difluoromethyl)phosphonic acid]",6.00 to 7.00
7,"CCOC(=O)CO[C@H]1C[C@@H](C(=O)Nc2ccc(I)cc2)N(C(=O)[C@@H](NC(=O)c2cc3cc(C(F)(F)P(=O)(O)O)ccc3s2)C(C)(C)C)C1 [Compound 53, ((2-(((S)-1-((2S,4S)-4-(2-ethoxy-2-oxoethoxy)-2-((4-iodophenyl)carbamoyl)pyrrolidin-1-yl)-3,3-dimethyl-1-oxobutan-2-yl)carbamoyl)benzo[b]thiophen-5-yl)difluoromethyl)phosphonic acid]",5.00 to 6.00
8,"CCOC(=O)CO[C@H]1C[C@@H](C(=O)N(C)c2ccc(Br)cc2)N(C(=O)[C@@H](NC(=O)c2cc3cc(C(F)(F)P(=O)(O)O)ccc3s2)C(C)(C)C)C1 [Compound 54, ((2-(((S)-1-((2S,4S)-2-((4-bromophenyl)(methyl)carbamoyl)-4-(2-ethoxy-2-oxoethoxy)pyrrolidin-1-yl)-3,3-dimethyl-1-oxobutan-2-yl)carbamoyl)benzo[b]thiophen-5-yl)difluoromethyl)phosphonic acid]",6.00 to 7.00
9,"CCCN(C(=O)[C@@H]1C[C@H](OCC(=O)OCC)CN1C(=O)[C@@H](NC(=O)c1cc2cc(C(F)(F)P(=O)(O)O)ccc2s1)C(C)(C)C)c1ccc(Br)cc1 [Compound 55, ((2-(((S)-1-((2S,4S)-2-((4-bromophenyl)(propyl)carbamoyl)-4-(2-ethoxy-2-oxoethoxy)pyrrolidin-1-yl)-3,3-dimethyl-1-oxobutan-2-yl)carbamoyl)benzo[b]thiophen-5-yl)difluoromethyl)phosphonic acid]",6.00 to 7.00
10,"CCOC(=O)CO[C@H]1C[C@@H](C(=O)N(CCC(=O)NC)c2ccc(Br)cc2)N(C(=O)[C@@H](NC(=O)c2cc3cc(C(F)(F)P(=O)(O)O)ccc3s2)C(C)(C)C)C1 [Compound 56, ((2-(((S)-1-((2S,4S)-2-((4-bromophenyl)(3-(methylamino)-3-oxopropyl)carbamoyl)-4-(2-ethoxy-2-oxoethoxy)pyrrolidin-1-yl)-3,3-dimethyl-1-oxobutan-2-yl)carbamoyl)benzo[b]thiophen-5-yl)difluoromethyl)phosphonic acid]",6.00 to 7.00
11,"CCOC(=O)CO[C@H]1C[C@@H](C(=O)N(CCC(=O)N(C)C)c2ccc(Br)cc2)N(C(=O)[C@@H](NC(=O)c2cc3cc(C(F)(F)P(=O)(O)O)ccc3s2)C(C)(C)C)C1 [Compound 57, ((2-(((S)-1-((2S,4S)-2-((4-bromophenyl)(3-(dimethylamino)-3-oxopropyl)carbamoyl)-4-(2-ethoxy-2-oxoethoxy)pyrrolidin-1-yl)-3,3-dimethyl-1-oxobutan-2-yl)carbamoyl)benzo[b]thiophen-5-yl)difluoromethyl)phosphonic acid]",6.00 to 7.00
12,"CC(C)(C)[C@H](NC(=O)c1cc2cc(C(F)(F)P(=O)(O)O)ccc2s1)C(=O)N1Cc2ccccc2C[C@H]1C(=O)N1CCOC(c2cccnc2)C1 (stereo partly drawn) [Compound 217, ((2-(((2S)-3,3-dimethyl-1-oxo-1-((3S)-3-(2-(pyridin-3-yl)morpholine-4-carbonyl)-3,4-dihydroisoquinolin-2(1H)-yl)butan-2-yl)carbamoyl)benzo[b]thiophen-5-yl)difluoromethyl)phosphonic acid]",> 7.00
13,"CC(C)(C)[C@H](NC(=O)c1cc2cc(C(F)(F)P(=O)(O)O)ccc2s1)C(=O)N1Cc2ccccc2C[C@H]1C(=O)N1CCOC(c2ccncc2)C1 (stereo partly drawn) [Compound 218, ((2-(((2S)-3,3-dimethyl-1-oxo-1-((3S)-3-(2-(pyridin-4-yl)morpholine-4-carbonyl)-3,4-dihydroisoquinolin-2(1H)-yl)butan-2-yl)carbamoyl)benzo[b]thiophen-5-yl)difluoromethyl)phosphonic acid]",6.00 to 7.00
14,"CC(C)(C)[C@H](NC(=O)c1cc2cc(C(F)(F)P(=O)(O)O)ccc2s1)C(=O)N1Cc2ccccc2C[C@H]1C(=O)N1CCOC(c2nccs2)C1 (stereo partly drawn) [Compound 219, ((2-(((2S)-3,3-dimethyl-1-oxo-1-((3S)-3-(2-(thiazol-2-yl)morpholine-4-carbonyl)-3,4-dihydroisoquinolin-2(1H)-yl)butan-2-yl)carbamoyl)benzo[b]thiophen-5-yl)difluoromethyl)phosphonic acid]",> 7.00
15,"CC(C)(C)[C@H](NC(=O)c1cc2cc(C(F)(F)P(=O)(O)O)ccc2s1)C(=O)N1Cc2ccccc2C[C@H]1C(=O)N1CCCOC(c2ccccc2)C1 (stereo partly drawn) [Compound 220, ((2-(((2S)-3,3-dimethyl-1-oxo-1-((3S)-3-(2-phenyl-1,4-oxazepane-4-carbonyl)-3,4-dihydroisoquinolin-2(1H)-yl)butan-2-yl)carbamoyl)benzo[b]thiophen-5-yl)difluoromethyl)phosphonic acid]",6.00 to 7.00
16,"CC(C)(C)[C@H](NC(=O)c1cc2cc(C(F)(F)P(=O)(O)O)ccc2s1)C(=O)N1Cc2ccccc2C[C@H]1C(=O)N1CCOC(Cc2ccccc2)C1 (stereo partly drawn) [Compound 221, ((2-(((2S)-1-((3S)-3-(2-benzylmorpholine-4-carbonyl)-3,4-dihydroisoquinolin-2(1H)-yl)-3,3-dimethyl-1-oxobutan-2-yl)carbamoyl)benzo[b]thiophen-5-yl)difluoromethyl)phosphonic acid]",6.00 to 7.00
